Measurements as given in PubChem BioAssay (NCI).
“And” between values parts separate entries of the source, which are not always exact repeats. Equal entries are not always repeated.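 48-hour exposure; five concentrations; linearly interpolated endpoints. Abbreviation: GI50, concentration required for 50% inhibition of growth. TGI denotes the concentration required for complete inhibition of growth.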 Where a SMILES comes first, the peptide text is derived from it. The star is where a group is joined. Cbz = O=C(OCc1ccccc1)*

Key:
Experiment in all cases: NCI tumour cell line growth inhibition, 48 h
[1] = tested on: CCRF-CEM leukemia
[2] = tested on: ACHN renal
[3] = tested on: UACC-257 melanoma
[4] = tested on: MDA-MB-231 breast
[5] = tested on: SK-MEL-2 melanoma
[6] = tested on: SNB-75 CNS
[7] = tested on: NCI-H226 lung
[8] = tested on: HS 578T breast
[9] = tested on: TK-10 renal
[10] = tested on: SF-539 CNS
[11] = tested on: HT29 colon
[12] = tested on: RXF 393 renal
[13] = tested on: SK-MEL-5 melanoma

| Compound | TGI [1] [µM] | TGI [2] | TGI [3] [µM] | TGI [4] | TGI [5] | TGI [6] | TGI [7] | TGI [8] | TGI [9] [µM] | TGI [10] [µM] | TGI [11] | TGI [12] [µM] | TGI [13] [µM] | GI50 [1] [µM] | GI50 [2] [µM] | GI50 [4] [µM] | GI50 [7] [µM] | GI50 [8] [µM] | GI50 [11] [µM] |
| --- | --- | --- | --- | --- | --- | --- | --- | --- | --- | --- | --- | --- | --- | --- | --- | --- | --- | --- | --- |
| CC(=O)SC(C[N+](=O)[O-])c1ccc2c(c1)OCO2 (stereo not drawn) | > 46.4 | 21.9 µM | 22.3 | 22.3 µM | 14.8 µM | 41.1 µM | 46 µM | 45.3 µM | 28.2 | 5.14 | 5.56 µM | 3.41 | 19.9 |  |  |  |  |  |  |
| CC(=O)c1c(N=[N+]=[N-])c2cccc3c2n(c1=O)CCC3 | 51.8 | 54.2 µM | 37.8 | 32.1 µM | 75.2 µM | 59.3 µM | 50.4 µM | 78.3 µM | 59 | > 100 | 35.5 µM | 45.4 | 28.5 |  |  |  |  |  |  |
| CC(=O)c1ccc2c(c1)C(=O)c1sc(C(C)=O)cc1C2=O |  | 1.54 µM and 1.5 µM |  | 3.75 µM and 7.75 µM | 4.23 µM and 2.98 µM | 6.27 µM and 4.85 µM | 2.2 µM and 4.03 µM | 50 µM and 7.03 µM | 5.55 | 1.86 | 2.82 µM and 9.47 µM | 4.7 | 1.89 | 0.182 | 0.405 | 0.521 | 1.43 | 2.21 | 2.71 |
| O=[N+]([O-])c1c(F)c(F)c2c(c1F)N(CCCCCl)c1ccccc1S2 | 6.35 | 30.4 µM | 27.5 | 21.9 µM | 8.18 µM | 17.2 µM | 33.1 µM | 74.4 µM | 32.5 | 31.9 | 6.74 µM | 27.4 | 32.7 |  |  |  |  |  |  |
| S=C1NCCN1C(=S)Nc1ccccc1 | > 100 | > 100 µM | > 100 | > 100 µM | > 100 µM | > 100 µM | > 100 µM | > 100 µM | > 100 | > 100 | > 100 µM | 58 | > 100 |  |  |  |  |  |  |
| CS(=O)(=O)N1CC(CCl)c2ccc(O)cc21 (stereo not drawn) | 23.8 | 12.4 µM | 5.95 | 6.16 µM | 8.94 µM | 8.4 µM | 6.83 µM | 90.9 µM | 6.98 | 5.05 | 14.2 µM | 4.19 | 3.46 |  |  |  |  |  |  |
| CCCCCCCCCCCC(=O)OC[C@@H](C[As](=O)(O)O)OC(=O)CCCCCCCCCCC | > 94.4 | 10.4 µM | 31.7 | 15.4 µM | 7.48 µM | 16.6 µM | 34.1 µM | 29.4 µM | 25 | 27.8 | 25.3 µM | 6.99 | 3.91 |  |  |  |  |  |  |
| CC(NC(=O)Cc1ccccc1)NC(=O)C(C)C(=O)NCc1ccccc1 (stereo not drawn) | > 100 | > 100 µM | > 100 | > 100 µM | > 100 µM | > 100 µM | 77.8 µM | 83.3 µM | > 100 | > 100 | > 100 µM | > 100 | > 100 |  |  |  |  |  |  |
| CC(=O)Nc1c(C(=N)C#N)ncn1CCO | > 100 | > 100 µM | > 100 | > 100 µM | > 100 µM | > 100 µM | > 100 µM | > 100 µM | > 100 | > 100 | > 100 µM | > 100 | > 100 |  |  |  |  |  |  |
| O=C(Cn1c2ccc(Br)cc2c2nc3ccccc3nc21)NNC(=S)NC1CCCCC1 | 18.8 | 29.6 µM | 30 | 31.6 µM | 40.4 µM | 47.5 µM | 33.6 µM | 52.9 µM | 28.7 |  | 28.9 µM | 23.4 | 28 |  |  |  |  |  |  |
| c1ccc2c3[nH]c(c2c1)=Nc1ccc(cc1)-c1nc2ccc(cc2o1)N=c1[nH]c(c2ccccc12)=Nc1ccc2nc(oc2c1)-c1ccc(cc1)N=3 | 26.7 | 35.5 µM | > 100 | > 100 µM | > 100 µM | > 100 µM | > 100 µM | > 100 µM | > 100 | > 100 | > 100 µM | > 100 | 29.4 |  |  |  |  |  |  |
| CCOC(=O)CCC(NC(=O)OCc1ccccc1)C(=O)NC(CCC(=O)OCC)C(=O)OCC (stereo not drawn) (Cbz-Glu(OEt)-Glu(OEt)-OEt; configuration not given here) | > 100 | > 100 µM | > 100 | > 100 µM | > 100 µM | > 100 µM | > 100 µM | > 100 µM |  | > 100 | > 100 µM | > 100 | > 100 |  |  |  |  |  |  |
| NCCCN(CCCN)CCc1cn(C(=O)c2ccccc2)cn1 | 14.8 | 19.2 µM | 25.2 | 28.8 µM | 24.7 µM | 17.7 µM | 26.1 µM | 86.5 µM | 20.6 | 35.3 | 29.5 µM | 8.89 | 21 |  |  |  |  |  |  |
| O=C1CC(=O)NC(=NN2C(=O)/C(=C/c3ccc(Cl)c(Cl)c3)N=C2c2ccccc2)N1 | 45.3 | > 100 µM | > 100 | 51.7 µM | 34.4 µM | 81.8 µM | > 100 µM | 50.9 µM | > 100 | 39.6 | 44.4 µM | 92.6 | 30.3 |  |  |  |  |  |  |
| CCOC(=O)c1c(OCC)[nH]c(=O)c(C(c2cccs2)c2c(O)c(C(=O)OCC)c(OCC)[nH]c2=O)c1O | > 100 | 25.4 µM | 36.9 | 30.1 µM | 29.9 µM | 9.72 µM | 27.4 µM | > 100 µM | 63.7 | 28.5 | 35.3 µM | 19 | 25.5 |  |  |  |  |  |  |
| OC(C/C=N/N=C/CC(O)(C(F)(F)Cl)C(F)(F)Cl)(C(F)(F)Cl)C(F)(F)Cl | > 10 | > 10 µM | > 10 | > 10 µM | > 10 µM | > 10 µM | > 10 µM | > 10 µM | > 10 | > 10 | > 10 µM | > 10 | > 10 |  |  |  |  |  |  |
| Cc1ccc(CSC(N)=Nc2ccccc2)cc1C | > 100 | > 100 µM | 36.9 | 33.6 µM | 33.6 µM | 63.9 µM | 43 µM | 49.1 µM | 86.7 | 53.1 | 40.1 µM | 33.4 | 34.9 |  |  |  |  |  |  |
